Columns and labels:
[1] = system: p62-dependent mitophagy; test: Luciferase-p62 assay (Fluc-p62 clearance) in mouse embryonic fibroblasts; type: cell-based; details: for Mean Luminescence: Luciferase-p62 assay, mouse embryonic fibroblasts (MEFs), compounds at 10 μM; for % Activity over baseline: percentage of Luciferase-p62 clearance relative to baseline (mean luminescence in the absence of doxycycline induction); for % Activity over baseline / % Activity relative to Rapamycin: MEFs, 10 μM; for % Activity relative to Rapamycin: percentage of activity relative to rapamycin tested in the same experiment at the same concentration
In short: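 MEFs with doxycycline-inducible Fluc-p62; after induction, doxycycline removed and cells treated 48 h with compounds at 10 μM. Fluc-p62 clearance, taken as mitophagy, read by ONE-Glo+Tox luciferase with viability. Vehicle (DMSO) as negative control; activity also expressed relative to rapamycin.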

[2] = system: p62-dependent mitophagy; test: Luciferase-p62 clearance assay, stated for HDFs; type: cell-based, human; details: 5 μM; HDFs
Description: (§1) FIGS. 15A-15C show hydroxycinnamic acids (HCAs) tested in mitophagy assays in primary HDFs. […] 80,000 mixed aged Fibroblasts expressing the Su9-Halo-GFP reporter were treated for 48 h with the indicated HCAs. A change in the reporter excitation occurs because the GFP tag is quenched in the lysosome environment, indicating mitophagy.
To identify p62-dependent materials which increase mitophagy, a Luciferase-p62 Assay was established. This method provides an approach to measure the ability of a material to modulate p62-dependent mitophagy by using an inducible firefly luciferase-p62 (Fluc-p62) reporter cell system. In this assay, p62 levels are driven by doxycycline treatment. After levels increased, expression of Fluc-p62 is turned off by removal of doxycycline, materials are then added and assessed for how they affect clearance of Fluc-p62 protein, which is proportionate to cellular mitophagy rates (Kelly et al.). […]
Test materials including bioactive materials were screened in mouse embryonic fibroblasts (MEFs, Harada et al.) expressing the TET-inducible p62-fluc construct as previously described (Brown et al.). […] Subsequently, cells were treated with test materials for 48 hours in normal growth medium and analysed using ONE-Glo™+Tox Luciferase Reporter and Cell Viability Assay (Promega) by following the manufacturer's protocol.

[3] = system: primary human dermal fibroblasts (HDFs); test: Mitophagy assay, Su9-Halo-GFP reporter, fluorescence microscopy; type: cell-based
Description: as §1
Primary human dermal fibroblasts (HDFs) were cultured in DMEM supplemented with 10 percent FBS, 100 units per milliliter penicillin/streptomycin, and 2 millimolar L-glutamine in a humidified atmosphere containing 5 percent carbon dioxide at 37 degrees Celsius. Stable expression of mt-mKeima was achieved through retroviral transduction (Kelly et al.). Cells stably expressing mt-mKeima were seeded in a 35 mm glass bottom dish (MatTek). The live-cell mt-Keima signal was obtained via widefield microscopy using the DMi8 and 2 filtersets to obtain the acidic (561 nm excitation, “red”) and pH-neutral (480 nm, “green”) mKeima signals. Using FIJI/ImageJ, a macro was applied to the mt-mKeima signal to extract mitolysosomes. […] Mitophagy events were determined as the number of puncta per cell. […] Fluorescence images were obtained using an LSM700 confocal microscope (Zeiss). The number of mitolysosomes (GFP-Halo+puncta) per cell was quantified using proprietary plugin in Fiji/ImageJ. […]

Compound	Mean Luminescence [1]	% Activity over baseline [1] [%]	% Activity relative to Rapamycin [1] [%]	p62-dependent mitophagy vs. untreated control cells [2]	mitophagy events by fluorescence microscopy ([3]; 8 μM, 48 h, mixed aged fibroblasts, Su9-Halo-GFP reporter)	increase of basal mitophagy levels, dose-response comparison with ferulic acid ([3]; 0.1-8 μM, HDFs)
C/C=C(\C)C(=O)O [Tiglic acid]	947.74	41.43	74.64			
Clc1ccc(C(Cn2ccnc2)OCc2ccsc2Cl)c(Cl)c1 (stereo not drawn) [Tioconazole]	537.96	66.75	120.27			
NC[C@H]1O[C@H](O[C@H]2[C@H](O)[C@@H](O[C@H]3O[C@H](CO)[C@@H](O)[C@H](N)[C@H]3O)[C@H](N)C[C@@H]2N)[C@H](N)C[C@@H]1O [Tobramycin]	971.48	39.96	72.00			
CC1=C(/C=C/C(C)=C/C=C/C(C)=C/C(=O)O)C(C)(C)CCC1 [Tretinoin (Aberela)]	773.39	52.20	94.06			
CN1[C@@H]2CC[C@H]1CC(=O)C2 [Tropinone]	896.55	44.59	80.34			
O=c1cc[nH]c(=O)[nH]1 [Uracil]	927.30	42.69	76.92			
O=c1ccn([C@@H]2O[C@H](CO)[C@@H](O)[C@H]2O)c(=O)[nH]1 [Uridine]	955.62	40.94	73.77			
O=c1oc2cc(O)ccc2c2ccc(O)cc12 [Urolithin A]	884.12	45.36	81.73			
C[C@H]1[C@H](C)CC[C@]2(C(=O)O)CC[C@]3(C)C(=CC[C@@H]4[C@@]5(C)CC[C@H](O)C(C)(C)[C@@H]5CC[C@]43C)[C@H]12 [Ursolic acid]	905.10	44.06	79.39			
COc1ccc(C=O)cc1OC [Veratraldehyde]	887.33	45.16	81.37			
COc1ccc(C(=O)O)cc1OC [Veratric acid]	937.88	42.04	75.74			
CC[C@]12CCCN3CCc4c(n(c5ccccc45)[C@@](O)(C(=O)OC)C1)[C@@H]32 [Vincamine]	716.24	55.74	100.42			
CCC12C=CCN3CC[C@@]4(c5ccc(OC)cc5N(C)[C@H]4[C@@](O)(C(=O)OC)[C@@H]1OC(C)=O)[C@@H]32 (stereo partly drawn) [Vindoline]	930.98	42.46	76.51			
O=C1O[C@H]([C@@H](O)CO)C(O)=C1O [Vitamin C]	962.07	40.54	73.05			
C=C1CC[C@H](O)C/C1=C/C=C1\CCC[C@]2(C)[C@@H]([C@H](C)CCCC(C)C)CC[C@@H]12 [Vitamin D3]	488.16	69.83	125.82			
COc1cc(O)c(CC=C(C)C)c(O)c1C(=O)/C=C/c1ccc(O)cc1 [Xanthohumol]	485.82	69.98	126.08			
CCC/C=C1\OC(=O)C2=C1CCC=C2 [Z-Ligustilide]	895.67	44.65	80.44			
CC1=C(/C=C/C(C)=C/C=C/C(C)=C/C=O)C(C)(C)CCC1 [all-trans Retinal]	967.12	40.23	72.49			
O=C(O)c1cccc(O)c1 [m-Hydroxybenzoic acid]	745.89	53.90	97.12			
O[C@H]1[C@H](O)[C@@H](O)[C@H](O)[C@@H](O)[C@H]1O [myo-Inositol]	670.16	58.58	105.55			
O=C(O)/C=C/c1ccc(O)cc1 [p-coumaric acid]				significantly increases p62-dependent mitophagy	increases mitophagy events	outperforms an O-methylated form (ferulic acid)
C/C(=C\CNc1ncnc2nc[nH]c12)CO [trans-Zeatin]	994.70	38.53	69.42			
O=c1cc(-c2ccccc2)oc2c1ccc1ccccc12 [α-Naphthoflavone]	781.48	51.70	93.16			
Bacitracin Zinc	919.94	43.15	77.74			
Bleomycin Sulfate	615.38	61.97	111.65			
Picrotoxin	868.69	46.31	83.45			
Schisantherin A	875.42	45.90	82.70			
Tubeimoside I	257.38	84.09	151.52			
